“And” between values parts separate entries of the source, which are not always exact repeats. Equal entries are not always repeated. Where two headings read alike, the source gives them in different places.
How the values were obtained:
[1] = tested on: cancer cell lines; conditions: cited from earlier work
[2] = tested on: Human Ovarian Carcinoma (A2780) cell line; conditions: 72 h exposure, cited from earlier work
[3] = tested on: Human Ovarian Carcinoma Cisplatin Resistant (A2780cisR) cell line; conditions: 72 h exposure, cited from earlier work
[4] = tested on: Human Embryonic Kidney 293T (HEK 293T) cell line; conditions: 72 h exposure; cited from earlier work
[5] = tested on: Human Ovarian Carcinoma Cisplatin Resistant (A2780cisR) cell line; assay: MTT cytotoxicity, A2780cisR; type: cell-based; conditions: 72 h exposure, mean ± SD
Source text: (§1) Human ovarian carcinoma (A2780 and A2780cisR) cell lines were obtained from the European Collection of Cell Cultures. The Human Embryonic Kidney 293T (HEK 293T) cell line was obtained from the ATCC (Sigma, Buchs, Switzerland). Penicillin–streptomycin, RPMI 1640 GlutaMAX (where RPMI = Roswell Park Memorial Institute), and DMEM GlutaMAX media (where DMEM = Dulbecco’s modified Eagle medium) were obtained from Life Technologies, and fetal bovine serum (FBS) was obtained from Sigma. The cells were cultured in RPMI 1640 GlutaMAX (A2780 and A2780cisR) and DMEM GlutaMAX (HEK 293T) media containing 10% heat-inactivated FBS and 1% penicillin–streptomycin at 37 °C and CO2 (5%). The A2780cisR cell line was routinely treated with cisplatin (2 μM) in the media to maintain cisplatin resistance. The cytotoxicity was determined using the 3-(4,5-dimethyl-2-thiazolyl)-2,5-diphenyl-2H-tetrazolium bromide (MTT) assay.[42] Cells were seeded in flat-bottomed 96-well plates as a suspension in a prepared medium (100 μL aliquots and approximately 4300 cells/well) and preincubated for 24 h. Stock solutions of compounds were prepared in DMSO and were diluted in the medium. The solutions were sequentially diluted to give a final DMSO concentration of 0.5% and a final compound concentration range of 0–200 μM. Cisplatin was tested as a positive (0–100 μM) control. The compounds were placed in the preincubated 96-well plates in 100 μL aliquots, and the plates were incubated for a further 72 h. MTT (20 μL, 5 mg/mL in Dulbecco’s phosphate buffered saline) was placed in the cells, and the plates were incubated for a further 4 h. The culture medium was aspirated, and the purple formazan crystals, formed by the mitochondrial dehydrogenase activity of vital cells, were dissolved in DMSO (100 μL/well). The absorbance of the resulting solutions, directly proportional to the number of surviving cells, was quantified at 590 nm using a SpectroMax M5e multimode microplate reader (using SoftMax Pro software, version 6.2.2). The percentage of surviving cells was calculated from the absorbance of wells corresponding to the untreated control cells. The reported IC50 values are based on the means from two independent experiments, each comprising four tests per concentration level.

[6] = tested on: Human Ovarian Carcinoma (A2780) cell line; assay: MTT cytotoxicity, A2780; type: cell-based; conditions: 72 h exposure, MTT, mean ± SD
Source text: as §1

[7] = tested on: Human Embryonic Kidney 293T (HEK 293T) cell line; assay: MTT cytotoxicity, HEK 293T; type: cell-based; conditions: 72 h exposure, mean ± SD
Source text: as §1

[8] = Octanol–water partition coefficient (shake-flask, UV–vis); type: physicochemical; conditions: T = 21 °C
Experimental: The solubility of the complexes in D2O was assessed using ^1H NMR spectroscopy (see Table 1 and the Experimental Section for details). […] Data from the literature for the related nonfunctionalized complexes [2′,3′]CF3SO3 are compiled in Table 1 for comparison.[11] The octanol–water partition coefficients (Log Pow) were measured using a UV–vis method and fall within the −0.2 to +1.2 range (Table 1). […] For instance, Log Pow values of 1.07 and 0.65 are obtained for the geometric isomers [9]CF3SO3 and [10]CF3SO3, respectively. […]
Determination of partition coefficients (Log P ow)
Partition coefficients ( Pow; IUPAC: K D partition constant, 7,8 defined as Pow = corg/caq, where corg and caq are the molar concentrations of the selected compound in the organic and aqueous phases, respectively, were determined by the shake-flask method and UV-Vis measurements. 9 Values of Log Pow for diiron complexes are compiled in Table 2. All the operations were carried out at 21±1 °C. De -ionised water and 1-octanol were mixed and vigorously stirred for 24 hours at room temperature to allow saturation of both phases, then separated by centrifugation and used for the following experiments. A solution of the selected Fe compound in the organic phase (V = 5 mL) was prepared and its UV-Vis spectrum was recorded. An aliquot of the solution (Vorg = 1.5 mL) was then transferred into a test tube and the aqueous phase (Vorg = Vaq = 1.5 mL) was added. The mixture was vigorously stirred for 20 minutes and the resulting emulsion was centrifuged (5000 rpm, 10’). […]
(§2) the organic phase was recorded. The procedure was repeated three times for each compound. The partition coefficient was then calculated as PPow = AorgA0,org − Aorg, where A0,org and Aorg are the absorbance values in the organic phase, respectively before and after mixing with the aqueous phase. 9 UV-Vis measurements were carried out using 1 cm PMMA cuvettes. The wavelength of the maximum absorption of each compound was used for UV-Vis quantification.

[9] = Stability in cell culture medium at 37 °C by NMR; type: physicochemical; conditions: after 72 h
Experimental: Complexes [3]CF3SO3, [5]CF3SO3, and [8]CF3SO3 were selected for an evaluation of their stability in the culture medium. Compounds were dissolved in DMSO-d6, and these solutions were diluted with the cell culture medium and stored at 37 °C. According to NMR spectroscopy, progressive release of the bioactive fragment occurred over 72 h, affording [3′]^+ from [3]CF3SO3 and [5′]^+ from [5]CF3SO3 (Figures S41 and S42). […] Overall, these findings indicate that the diiron scaffold decorated with biofunctionalized vinyliminium ligands is robust in aqueous media, with a tendency to progressively release the bioactive moiety in the medium used in cytotoxicity studies.
[8]CF3SO3, after 24 h: [3']+ and chlorambucil species ([8OH]+ + [8 2OH]+) (ratio 5:2). From [8]CF3SO3, after 72 h:
[3']+ and chlorambucil species ([82OH]+) (ratio 7:2).
Determination of partition coefficients (Log P ow) […]
as §2, with “The procedure was repeated three times for each compound.” left out, “9 UV-Vis measurements were carried out using 1 cm PMMA cuvettes.” left out

[10] = biological target: T1, COX-2 enzyme (Homo sapiens, UniProt P35354); assay: COX-2 enzyme inhibition assay (fluorimetric); type: biochemical; conditions: residual enzyme activity, 25 °C, pH 8, mean ± SD
T1 construct: purchased Cayman Chemical Company
T1 sequence (P35354 18-604): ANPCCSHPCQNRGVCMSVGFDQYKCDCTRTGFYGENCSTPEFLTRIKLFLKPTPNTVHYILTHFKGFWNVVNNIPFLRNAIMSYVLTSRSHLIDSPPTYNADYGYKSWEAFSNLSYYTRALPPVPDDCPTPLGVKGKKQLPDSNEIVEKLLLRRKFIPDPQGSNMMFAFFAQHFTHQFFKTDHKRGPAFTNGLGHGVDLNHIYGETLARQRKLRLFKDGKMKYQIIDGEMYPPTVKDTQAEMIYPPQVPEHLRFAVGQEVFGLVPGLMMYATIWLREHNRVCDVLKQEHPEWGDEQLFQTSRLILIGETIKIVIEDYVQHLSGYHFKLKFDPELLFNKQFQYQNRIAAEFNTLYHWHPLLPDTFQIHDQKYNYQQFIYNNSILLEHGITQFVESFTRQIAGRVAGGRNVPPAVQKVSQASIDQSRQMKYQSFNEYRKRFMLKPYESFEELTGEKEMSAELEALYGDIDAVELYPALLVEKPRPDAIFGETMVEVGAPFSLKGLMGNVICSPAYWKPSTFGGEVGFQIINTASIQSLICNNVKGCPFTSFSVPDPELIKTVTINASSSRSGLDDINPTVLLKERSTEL
Experimental: Next, the possible role of the bioactive fragment in the complexes was studied.
The IC50 value was obtained using GraphPad Prism 7 software. All of the inhibitor assays were performed at least in triplicate.

[11] = Stability in D2O/DMSO at 37 °C by 1H NMR; type: physicochemical; conditions: for stability (%), residual percent of complex / stability (%), residual percentage of the complex: D2O/DMSO 2/1 v/v; for stability (%), total percentage of diiron complexes with a chlorambucil-like group: D2O/DMSO 1/1 v/v
Experimental: Conversely, [3–7]CF3SO3, containing either {Aryl–OCOAsp} or {Aryl-NHCOAsp} moieties, were stable under the same conditions. […] Complete conversion into the bis-hydroxide [8^2OH]^+ was achieved within 72 h. Similarly, [9,10]CF3SO3 undergo activation of the {C–Cl} bonds to give mixtures of the partially Cl/OH substituted species [9^OH]^+ and [10^OH]^+ and the fully substituted species [9^2OH]^+ and [10^2OH]^+.

[12] = Solubility in D2O by 1H NMR; type: physicochemical; conditions: Me2SO2 internal standard, T = 21 °C
Experimental: The solubility of the complexes in D2O was assessed using ^1H NMR spectroscopy (see Table 1 and the Experimental Section for details). […] Data from the literature for the related nonfunctionalized complexes [2′,3′]CF3SO3 are compiled in Table 1 for comparison.[11] The octanol–water partition coefficients (Log Pow) were measured using a UV–vis method and fall within the −0.2 to +1.2 range (Table 1). […] For instance, Log Pow values of 1.07 and 0.65 are obtained for the geometric isomers [9]CF3SO3 and [10]CF3SO3, respectively.

[13] = deuterated aqueous medium, 37 °C

| Molecule | Log Pow [8] | IC50 [10] [µM] | stability (%), residual percent of complex ([11]; 24 h at 37 °C) [%] | solubility [12] | IC50 [5] [µM] | IC50 [6] [µM] | IC50 [7] [µM] | further results |
| --- | --- | --- | --- | --- | --- | --- | --- | --- |
| C#CCOC(=O)c1ccccc1OC(C)=O [ALK^A1] |  |  |  |  |  |  |  | activity toward cancer cell lines [1]: absence of activity |
| CC(=O)Oc1ccccc1C(=O)O [aspirin, acetylsalicylic acid] |  |  |  |  |  |  |  | IC50 [2]: > 200 µM; IC50 [3]: > 200 µM; IC50 [4]: > 200 µM |
| O=C(O)CCCc1ccc(N(CCCl)CCCl)cc1 [chlorambucil] |  |  |  |  |  |  |  | IC50 ([2]; ref 22b): 5.2 ± 1.6 µM; IC50 ([3]; ref 22b): 25 ± 4 µM |
| N.N.[Cl][Pt][Cl] [cisplatin, reference compound] |  |  |  |  | 7.9 ± 0.1 | 0.6 ± 0.1 | 2.6 ± 0.4 |  |
| [Fe2Cp2(CO)2(μ-CO){μ-CNMe(R)}]CF3SO3 (R = Me) [[1a]CF3SO3] |  |  |  |  |  |  |  | IC50 [2]: > 200 µM; IC50 A2780 [2]: not active |
| [Fe2Cp2(CO)2(μ-CO){μ-CNMe(R)}]CF3SO3 (R = Xyl = 2,6-C6H3Me2) [[1b]CF3SO3] |  |  |  |  |  |  |  | IC50 [2]: 9.3 ± 0.7 µM |
| [Fe2Cp2(CO)(μ-CO){μ-η^1:η^3-Cγ(3-C6H4NHC(=O)C6H4OC(=O)Me)CβHCαNMe2}]CF3SO3 [[5]CF3SO3] | –0.10 ± 0.01 | 10 ± 2 | 69 |  | 45 ± 1 | 43 ± 6 | 89.9 ± 0.3 | dissociation of the bioactive fragment [9]: complete dissociation |

More lines, main results first:

| Log Pow [8] | IC50 [10] [µM] | stability (%), residual percent of complex ([11]; 24 h at 37 °C) [%] | solubility [12] | Molecule | IC50 [5] [µM] | IC50 [6] [µM] | IC50 [7] [µM] | further results |
| --- | --- | --- | --- | --- | --- | --- | --- | --- |
| 0.80 ± 0.02 | 66 ± 2 | 91 | <1 × 10^–4 mol L^–1 | [Fe2Cp2(CO)(μ-CO){μ-η^1:η^3-Cγ(3-C6H4NHC(=O)C6H4OC(=O)Me)CβHCαNMe(Xyl)}]CF3SO3 [[6]CF3SO3] | 7 ± 2 | 6.5 ± 0.8 | 7.2 ± 0.9 |  |
| 1.2 ± 0.2 |  |  | <1 × 10^–4 mol L^–1 | [Fe2Cp2(CO)(μ-CO){μ-η^1:η^3-Cγ(3-C6H4OC(=O)(CH2)3C6H4N(CH2CH2Cl)2)CβHCαNMe2}]CF3SO3 [[8]CF3SO3] | 23 ± 3 | 4.7 ± 0.4 | 20 ± 9 | stability (%), total percentage of diiron complexes with a chlorambucil-like group ([11]; 24 h at 37 °C): 84%; stability (%), total percentage of diiron complexes with a chlorambucil-like group ([11]; 72 h at 37 °C): 77%; stability of the linkage to the bioactive fragment (hydrolysis) [11, 13]: did not undergo hydrolysis; time to complete conversion into the bis-hydroxide (Cl/OH exchange) [11, 13]: ≤ 72 h |
| 0.24 ± 0.01 | 71 ± 1 | 81 |  | [Fe2Cp2(CO)(μ-CO){μ-η^1:η^3-Cγ(3-C6H4OC(=O)C6H4OC(=O)Me)CβHCαNMe2}]CF3SO3 [[3]CF3SO3] | 21 ± 5 | 24 ± 5 | 42 ± 6 | stability (%), residual percentage of the complex ([11]; 72 h at 37 °C): 57% |
| 0.65 and 0.65 ± 0.02 |  |  | <1 × 10^–4 mol L^–1 | [Fe2Cp2(CO)(μ-CO){μ-η^1:η^3-Cγ(4-C6H4NHC(=O)(CH2)3C6H4N(CH2CH2Cl)2)CβHCαNMe2}]CF3SO3 [[10]CF3SO3] | 15 ± 5 | 6.4 ± 1.4 | 30 ± 1 | stability (%), total percentage of diiron complexes with a chlorambucil-like group ([11]; 24 h at 37 °C): 93%; stability (%), total percentage of diiron complexes with a chlorambucil-like group ([11]; 72 h at 37 °C): 85% |
| –0.19 ± 0.01 | 20 ± 2 | 70 |  | [Fe2Cp2(CO)(μ-CO){μ-η^1:η^3-Cγ(4-C6H4NHC(=O)C6H4OC(=O)Me)CβHCαNMe2}]CF3SO3 [[7]CF3SO3] | 87 ± 10 | 71 ± 14 | > 100 |  |
| 0.40 ± 0.01 | 84 ± 2 | 85 | <1 × 10^–4 mol L^–1 | [Fe2Cp2(CO)(μ-CO){μ-η^1:η^3-Cγ(CH2OC(=O)C6H4OC(=O)Me)CβHCαNMe(Xyl)}]CF3SO3 [[2]CF3SO3] | 14 ± 1 | 13 ± 2 | 9.2 ± 0.5 | stability (%), residual percentage of the complex ([11]; 72 h at 37 °C): 69%; release of aspirin from the linkage ([11]; deuterated aqueous medium, 37 °C, 24 h): approximately 20% |

Reference: PMC8397425, “A Strategy to Conjugate Bioactive Fragments to Cytotoxic Diiron Bis(cyclopentadienyl) Complexes” (Organometallics, 2021)
